Tests used:
Assay type in all cases: in vivo
mice [1] = assay: phenylbenzoquinone test according to Siegmund (analgesic activity, contractions of the abdomen); settings: for ED50: Mus musculus, po, mice; for analgesic activity in the Siegmund test: in words
Description: (§1) The analgesic activity of the compounds of the present invention was studied by means of the tail-flick test according to D'Amour F. E. and Smith D. L., Journal of pharmacology and experimental therapeutics, 72, 74-79 (1941), the hot plate test according to Woolfe G. and MacDonald A. D., Journal of pharmacology and experimental therapeutics, 80, 300-307 (1944) and the phenylbenzoquinone test according to Siegmund E., Cadmus R. and Lu G, Proc. Soc. […]. Biol. Med. 95, 729-731 (1957).

mice [2] = assay: hot plate test according to Woolfe and MacDonald (analgesic activity, licking time); settings: Mus musculus, ip
Description: as §1

mice [3] = assay: tail-flick test according to D'Amour and Smith (analgesic activity, reaction time); settings: for ED50: Mus musculus, ip, mice
Description: The analgesic activity of the compounds of the present invention was studied by means of the tail-flick test according to D'Amour F. E. and Smith D. L., Journal of pharmacology and experimental therapeutics, 72, 74-79 (1941), the hot plate test according to Woolfe G. and MacDonald A. D., Journal of pharmacology and experimental therapeutics, 80, 300-307 (1944) and the phenylbenzoquinone test according to Siegmund E., Cadmus R. and Lu G, Proc. Soc. Exptle. Biol. Med. 95, 729-731 (1957).
By way of example, the following table lists the results of the analgesic effects observed in mice for several representative products of the invention:
Note: The mean effective dose (ED50) was calculated:
in the tailflick test from the percentage variations in the reaction time
(in seconds) by comparison with the control batch.

mice [4] = assay: four plates test according to Aron et al. (anxiolytic activity, number of shocks received); settings: for % number of shocks received: mice, N = 10; for anxiolytic activity in the 4 plates test: in words
Description: (§2) The anxiolytic activity was studied, for its part, by means of the four plates test according to Aron C., Simon P., Larousse C. and Boissier J. R., Neuropharmacology, 10, 459-469, (1971), the conflict test according to Vogel J. R., Beer B., Clody D. E., Physchopharmacol.

rats = assay: Mac Millan punishment test, punishment operating conditioning (anxiolytic activity, number of punished responses); settings: for percentage variation in the number of punished responses: rats, N ≥ 9; for anxiolytic activity in the conflict test according to MacMillan: in words
Description: as §2, with “Physchopharmacol. 21, 1-7, (1971) and the punishment test according to Mac Millan D. E., J. Exp. Anal. Behav, 19, 133-145 (1973).” for “Physchopharmacol.”
PUNISHMENT OPERATING CONDITIONING (RATS)
PERCENTAGE VARIATION IN THE NUMBER
OF PUNISHED RESPONSES (N ≥ 9)
S = Significant modification

Row | SMILES | ED50 (mice [1]) [mg/kg] | ED50 (mice [2]) [mg/kg] | ED50 (mice [3]) [mg/kg] | % number of shocks received (mice [4]; 2.5 mg/kg i.p.) | % number of shocks received (mice [4]; 5 mg/kg i.p.) | % number of shocks received (mice [4]; 10 mg/kg i.p.) | % number of shocks received (mice [4]; 25 mg/kg i.p.) | anxiolytic activity in the 4 plates test (mice [4]) | activity in the tail-flick test (mice [3]; 50 mg/kg i.p., in words) | percentage variation in the number of punished responses (rats; 2.5 mg/kg i.p.) | percentage variation in the number of punished responses (rats; 5 mg/kg i.p.) | percentage variation in the number of punished responses (rats; 10 mg/kg i.p.) | percentage variation in the number of punished responses (rats; 20 mg/kg i.p.) [%] | anxiolytic activity in the conflict test according to MacMillan (rats) | analgesic activity in the Siegmund test (mice [1])
1 | FC(F)(F)c1cccc(N2CCN(CCCc3nnc4n3C[C@H]3CCCC[C@H]3C4)CC2)c1 (relative stereo) [Example 3, Cis-10{γ-N-[N'(metatrifluoromethylphenyl)piperazine]n-propyl}-3,3a,4,5,6,7,7a,8-octahydrotriazolo[4,3-b]isoquinoline] | 16 | 19.8 | > 50 | +38% | +44% | +48% | 18% | very significant anxiolytic activity | – | – | – | – | – | – | –
2 | Clc1cccc(N2CCN(CCc3nnc4n3[C@H]3CCCC[C@@H]3CC4)CC2)c1 (relative stereo) [Example 12] | 25.7 | 25.3 | 30.7 | +38% | +15% | +20% | +2% | very significant anxiolytic activity | active | -33.5% | -24% | -51.3% | -75 | – | –
3 | FC(F)(F)c1cccc(N2CCN(CCc3nnc4n3C[C@H]3CCCC[C@H]3C4)CC2)c1 (relative stereo) [Example 16] | 17 | 24.3 | > 50 | -12% | +2% | +32% | +5% | very significant anxiolytic activity | – | +5.4% | +42.2% | +125.9% | -60.7 | very significant anxiolytic activity | –
4 | Clc1cccc(N2CCN(CCCc3nnc4n3C[C@H]3CCCC[C@H]3C4)CC2)c1 (relative stereo) [Example 40] | 7.5 | 53.9 | > 50 | – | – | – | – | – | – | – | – | – | – | – | very significant analgesic activiy
5 | Clc1cccc(N2CCN(CCCc3nnc4n3[C@H]3CCCC[C@H]3CC4)CC2)c1 (relative stereo) [Example 42] | 11.4 | – | > 50 | – | – | – | – | – | – | – | – | – | – | – | –
6 | Clc1cccc(N2CCN(CCc3nnc4n3CC3CCCCC43)CC2)c1 (stereo not drawn) [Example 2, 9-{β-N'-[N-(metachlorophenyl)piperazine]ethyl}-[7H]-2b,3,4,5,6,6a-hexahydrotriazolo[3,4-a]cyclohexa(c)pyrrole] | 8.7 | > 50 | > 50 | – | – | – | – | – | – | – | – | – | – | – | very significant analgesic activiy
7 | FC(F)(F)c1cccc(N2CCN(CCc3nnc4n3CC3CCCC43)CC2)c1 (centres unmarked) [Example 17a] | 5.82 | 21.3 | > 50 | +18% | +26% | +35% | +61% | very significant anxiolytic activity | – | +47.8% | +33.6% | +42.6% | -70.3 | very significant anxiolytic activity | –
8 | FC(F)(F)c1cccc(N2CCN(CCc3nnc4n3CC3CCCC43)CC2)c1 (centres unmarked) [Example 17b] | – | – | – | +15% | +34% | +53% | +27% | very significant anxiolytic activity | – | – | – | – | – | – | –
9 | FC(F)(F)c1cccc(N2CCN(CCc3nnc4n3CC3CCCCC43)CC2)c1 (centres unmarked) [Example 36] | 4.3 | 25 to 50 | > 50 | -12% | -4% | -4% | +39% | very significant anxiolytic activity | – | – | – | – | – | – | very significant analgesic activiy
